Measurements from US10570122B2, “Compounds with anti-tumoral activity” (AB Science, priority 2015, dated 2020).

How the values were obtained:
HCT116 = assay: CellTiter-Blue cell-based survival/proliferation assay, HCT116; settings: Homo sapiens, HCT-116; HCT116 colorectal tumor cell line, 48 h
How it was run: (§1)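 Tenfold compound dilutions (0–10 μM) were added to 1·10^4 cells/well. Plates incubated 48 h at 37 °C. CellTiter-Blue reduction (4 h, 37 °C) was read as fluorescence at 590 nm, background-corrected with a cell-free blank.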

U2OS = assay: CellTiter-Blue cell-based survival/proliferation assay, U2OS; settings: Homo sapiens; U2OS osteosarcoma cell line, 48 h
How it was run: as §1

MESSA = assay: CellTiter-Blue cell-based survival/proliferation assay, MESSA; settings: Homo sapiens, MES-SA; MESSA ovary tumor cell line, 48 h
How it was run: as §1

ACHN = assay: CellTiter-Blue cell-based survival/proliferation assay, ACHN; settings: Homo sapiens; ACHN kidney tumor cell line, 48 h
How it was run: as §1

PANC1 = assay: CellTiter-Blue cell-based survival/proliferation assay, PANC1; settings: Homo sapiens, PANC-1; PANC_1 pancreas tumor cell line, 48 h
How it was run: as §1

KARPAS299 = assay: CellTiter-Blue cell-based survival/proliferation assay, KARPAS299; settings: Homo sapiens, KARPAS-299, Lymphoma cell line KARPAS299, 48 h, read-out: Anti-tumoral activity (measured IC50) KARPAS299
How it was run: as §1

HEP2 = assay: CellTiter-Blue cell-based survival/proliferation assay, HEP2; settings: Homo sapiens, HEp-2; HEP2 head & neck tumor cell line, 48 h
How it was run: as §1

CALU6 = assay: CellTiter-Blue cell-based survival/proliferation assay, CALU6; settings: Homo sapiens, Calu-6; CALU6 lung tumor cell line, 48 h
How it was run: as §1

OPM2 = assay: CellTiter-Blue cell-based survival/proliferation assay, OPM2; settings: Homo sapiens, OPM-2, Myeloma cell line OPM2, 48 h, read-out: Anti-tumoral activity (measured IC50) OPM2
How it was run: as §1

A375 = assay: CellTiter-Blue cell-based survival/proliferation assay, A375; settings: Homo sapiens, A-375; A375 melanoma cell line, 48 h
How it was run: as §1

HEPG2 = assay: CellTiter-Blue cell-based survival/proliferation assay, HEPG2; settings: Homo sapiens; HEPG2 liver tumor cell line, 48 h
How it was run: as §1

HGC27 = assay: CellTiter-Blue cell-based survival/proliferation assay, HGC27; settings: Homo sapiens, HGC-27; HGC27 stomach tumor cell line, 48 h
How it was run: as §1

PC3 = assay: CellTiter-Blue cell-based survival/proliferation assay, PC3; settings: Homo sapiens, PC-3; PC3 prostate tumor cell line, 48 h
How it was run: as §1

MELWO = assay: CellTiter-Blue cell-based survival/proliferation assay, MELWO; settings: Homo sapiens; MEL_WO melanoma cell line, 48 h
How it was run: as §1

AGS = assay: CellTiter-Blue cell-based survival/proliferation assay, AGS; settings: Homo sapiens; AGS stomach tumor cell line, 48 h
How it was run: as §1

A498 = assay: CellTiter-Blue cell-based survival/proliferation assay, A498; settings: Homo sapiens; A498 kidney tumor cell line, 48 h
How it was run: as §1

TOV112D = assay: CellTiter-Blue cell-based survival/proliferation assay, TOV112D; settings: Homo sapiens; TOV112D ovary tumor cell line, 48 h
How it was run: as §1

A549 = assay: CellTiter-Blue cell-based survival/proliferation assay, A549; settings: Homo sapiens; A549 lung tumor cell line, 48 h
How it was run: as §1

HUT78 = assay: CellTiter-Blue cell-based survival/proliferation assay, HUT78; settings: Homo sapiens, Lymphoma cell line HUT78, 48 h, read-out: Anti-tumoral activity (measured IC50) HUT78
How it was run: as §1

U87MG = assay: CellTiter-Blue cell-based survival/proliferation assay, U87MG; settings: Homo sapiens, U-87 MG; U87_MG glioblastoma cell line, 48 h
How it was run: as §1

SW579 = assay: CellTiter-Blue cell-based survival/proliferation assay, SW579; settings: Homo sapiens; SW579 head & neck tumor cell line, 48 h
How it was run: as §1

H1299 = assay: CellTiter-Blue cell-based survival/proliferation assay, H1299; settings: Homo sapiens, NCI-H1299; H1299 lung tumor cell line, 48 h
How it was run: as §1

A4513 = assay: CellTiter-Blue cell-based survival/proliferation assay, A4513; settings: Homo sapiens; A4513 Ewing cell line, 48 h
How it was run: as §1

U118 = assay: CellTiter-Blue cell-based survival/proliferation assay, U118; settings: Homo sapiens; U118 glioblastoma cell line, 48 h
How it was run: as §1

DU145 = assay: CellTiter-Blue cell-based survival/proliferation assay, DU145; settings: Homo sapiens, DU-145; DU145 prostate tumor cell line, 48 h
How it was run: as §1

BXPC3 = assay: CellTiter-Blue cell-based survival/proliferation assay, BXPC3; settings: Homo sapiens, BXPC-3; BXPC3 pancreas tumor cell line, 48 h
How it was run: as §1

[1] = test system: human kinases (456 kinases); assay: KINOMEscan in vitro kinase profiling; assay type: binding
Description: An in vitro kinase profiling was conducted in order to evidence the absence of protein kinase inhibition by the compounds of the invention.
DiscoveRx (Ambit Biosciences) has developed a high-throughput system (KINOMEscan™) for screening of compounds against large numbers of human kinases (456 kinases).
The compounds of the invention were screened at the concentration of 1 μM, and results for primary screen binding interactions were reported as percent control (% Ctrl), where lower numbers indicate stronger hits. DMSO is used as a negative control (100% Ctrl) while a high affinity compound is used as a positive control (0% Ctrl). % Ctrl is calculated as follow:
[formula] Selectivity Score or S-score is a quantitative measure of compound selectivity. It is calculated by dividing the number of kinases that compounds bind to by the total number of distinct kinases tested, excluding mutant variants. S(10)=(number of kinases with % Ctrl<10)/(number of kinases tested), S(1)=(number of kinases with % Ctrl<1)/(number of kinases tested).

PLCPRF5 = assay: CellTiter-Blue cell-based survival/proliferation assay, PLCPRF5; settings: Homo sapiens, PLC-PRF-5; PLC_PRF5 liver tumor cell line, 48 h
How it was run: as §1

HL60 = assay: CellTiter-Blue cell-based survival/proliferation assay, HL60; settings: Homo sapiens, HL-60, Leukemia cell line HL60, 48 h, read-out: Anti-tumoral activity (measured IC50) HL60
How it was run: as §1

BT20 = assay: CellTiter-Blue cell-based survival/proliferation assay, BT20; settings: Homo sapiens, BT-20; BT20 breast tumor cell line, 48 h
How it was run: as §1

REC1 = assay: CellTiter-Blue cell-based survival/proliferation assay, REC1; settings: Homo sapiens, Lymphoma cell line REC1, 48 h, read-out: Anti-tumoral activity (measured IC50) REC1
How it was run: as §1

DLD1 = assay: CellTiter-Blue cell-based survival/proliferation assay, DLD1; settings: Homo sapiens, DLD-1; DLD_1 colorectal tumor cell line, 48 h
How it was run: as §1

CLS354 = assay: CellTiter-Blue cell-based survival/proliferation assay, CLS354; settings: Homo sapiens, CLS-354; CLS354_4 head & neck tumor cell line, 48 h
How it was run: as §1

MDAMB231 = assay: CellTiter-Blue cell-based survival/proliferation assay, MDAMB231; settings: Homo sapiens, MDA-MB-231; MDAMB231 breast tumor cell line, 48 h
How it was run: as §1

[2] = test system: panel of about 34 human tumor cell lines; assay: Cell-based proliferation screening on panel of tumor cell lines; settings: solid tumor cell line, cell line unknown, 48 h, read-out: IC50, solid tumor cell line of column 6 (last section of Table 3)
How it was run: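 CellTiter-Blue survival assay with 1·10^4 cells/well, each line treated 48 h at 37° C with 1/10 serial dilutions from 0 to 10 μM. Resorufin formed during a 4 h reagent incubation is read by fluorescence at 590 nm. A cell-free blank serves as background.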

RL = assay: CellTiter-Blue cell-based survival/proliferation assay, RL; settings: Homo sapiens, Lymphoma cell line RL, 48 h, read-out: Anti-tumoral activity (measured IC50) RL
Description: Cell-Based Proliferation Screening of Compounds
CellTiter-Blue cell-based survival/proliferation assay (Promega G8080) was performed on tumor cell lines. A total of 1·10^4 cells/well/50 μl were seeded in a 96-wells plate. Treatment was initiated by addition of a 2× drug solution of 1/10 serial dilutions ranging from 0 to 10 μM. Cells were grown for 48 h at 37° C. and then incubated with 10 μl/well of Promega CellTiter-Bleue reagent for 4 h at 37° C. The amount of resorufin dye formed was quantified by its fluorescence emission at 590 nm using a scanning multiwell spectrophotometer (OPTIMA, BMG labtech, France). A blank well without cells was used as a background control for the spectrophotometer.

SMILES: CCOCc1ccc(C)c(Nc2ncc(-c3ccc(N4CCNC4=O)cc3)o2)c1 [Example 006, 1-{4-[2-(5-Ethoxymethyl-(2-methyl-phenylamino))-oxazol-5-yl]-phenyl}-imidazolidin-2-one]
- IC50 (HCT116): > 1000 nM
- IC50 (U2OS): 100 to 500 nM
- IC50 (MESSA): > 1000 nM
- IC50 (ACHN): ≤ 100 nM
- IC50 (PANC1): > 1000 nM
- IC50 (KARPAS299): ≤ 100 nM
- IC50 (HEP2): > 1000 nM
- IC50 (CALU6): > 1000 nM
- IC50 (OPM2): ≤ 100 nM
- IC50 (A375): ≤ 100 nM
- IC50 (HEPG2): > 1000 nM
- IC50 (HGC27): > 1000 nM
- IC50 (PC3): ≤ 100 nM
- IC50 (MELWO): ≤ 100 nM
- IC50 (AGS): > 1000 nM
- IC50 (A498): 100 to 500 nM
- IC50 (TOV112D): ≤ 100 nM
- IC50 (A549): > 1000 nM
- IC50 (HUT78): ≤ 100 nM
- IC50 (U87MG): > 1000 nM
- IC50 (SW579): > 1000 nM
- IC50 (H1299): > 1000 nM
- IC50 (A4513): ≤ 100 nM
- IC50 (U118): > 1000 nM
- IC50 (DU145): > 1000 nM
- IC50 (BXPC3): ≤ 100 nM
- Interaction with the 456 kinases tested ([1]; screened at 1 μM): do not efficiently interact
- Number of hits/number of kinases, S1 ([1]; tested at 1 μM, S(1): kinases with % Ctrl<1): 0/456
- S-score, S1 ([1]; tested at 1 μM, S(1)=(number of kinases with % Ctrl<1)/(number of kinases tested)): 0.000
- Number of hits/number of kinases, S10 ([1]; tested at 1 μM, S(10): kinases with % Ctrl<10): 0/456
- S-score, S10 ([1]; tested at 1 μM, S(10)=(number of kinases with % Ctrl<10)/(number of kinases tested)): 0.000
- Kinase targets, S1 ([1]; tested at 1 μM, kinases with % Ctrl<1): None
- IC50 (PLCPRF5): > 1000 nM
- IC50 (HL60): ≤ 100 nM
- IC50 (BT20): 100 to 500 nM
- IC50 (REC1): ≤ 100 nM
- IC50 (DLD1): ≤ 100 nM
- IC50 (CLS354): ≤ 100 nM
- IC50 (MDAMB231): ≤ 100 nM

SMILES: CCOCc1ccc(C)c(Nc2ncc(-c3ccc(-n4ccnc4)cc3)o2)c1 [Example 037, (5-Ethoxymethyl-2-methyl-phenyl)-[5-(4-imidazol-1-yl-phenyl)-oxazol-2-yl]-amine]
- IC50 (HCT116): > 1000 nM
- IC50 (MESSA): > 1000 nM
- IC50 (ACHN): > 1000 nM
- IC50 (PANC1): > 1000 nM
- IC50 (KARPAS299): > 1000 nM
- IC50 (HEP2): > 1000 nM
- IC50 (CALU6): > 1000 nM
- IC50 (OPM2): > 1000 nM
- IC50 (HEPG2): > 1000 nM
- IC50 (HGC27): > 1000 nM
- IC50 (PC3): > 1000 nM
- IC50 (AGS): > 1000 nM
- IC50 (A498): > 1000 nM
- IC50 (TOV112D): > 1000 nM
- IC50 [2]: > 1000 nM
- IC50 (A549): > 1000 nM
- IC50 (HUT78): > 1000 nM
- IC50 (RL): > 1000 nM
- IC50 (SW579): > 1000 nM
- IC50 (H1299): > 1000 nM
- IC50 (DU145): > 1000 nM
- IC50 (BXPC3): > 1000 nM
- IC50 (PLCPRF5): > 1000 nM
- IC50 (HL60): > 1000 nM
- IC50 (BT20): > 1000 nM
- IC50 (DLD1): > 1000 nM
- IC50 (CLS354): > 1000 nM
- IC50 (MDAMB231): > 1000 nM
